Laboratory results as given in PubChem BioAssay (NCI).
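Compound exposure: 48 hours, 5 concentrations, 96-well plates. GI50: concentration for 50% inhibition of growth. TGI is the concentration that stops growth completely.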

Assays:
Assay in all cases: NCI-60 cell line screen, 48 h
SF-539 CNS = system: SF-539 CNS
MCF7 breast = system: MCF7 breast
U251 CNS = system: U251 CNS
SF-295 CNS = system: SF-295 CNS
HL-60(TB) leukemia = system: HL-60(TB) leukemia
SR leukemia = system: SR leukemia
K-562 leukemia = system: K-562 leukemia
SK-MEL-2 melanoma = system: SK-MEL-2 melanoma
MDA-MB-231 breast = system: MDA-MB-231 breast
SW-620 colon = system: SW-620 colon
HOP-92 NSCLC = system: HOP-92 NSCLC
BT-549 breast = system: BT-549 breast
CAKI-1 renal = system: CAKI-1 renal
NCI-H226 lung = system: NCI-H226 lung
LOX IMVI melanoma = system: LOX IMVI melanoma
EKVX NSCLC = system: EKVX NSCLC
HCT-15 colon = system: HCT-15 colon
T-47D breast = system: T-47D breast
NCI/ADR-RES ovarian = system: NCI/ADR-RES ovarian
M14 melanoma = system: M14 melanoma
PC-3 prostate = system: PC-3 prostate
A498 renal = system: A498 renal
NCI-H522 lung = system: NCI-H522 lung
OVCAR-8 ovarian = system: OVCAR-8 ovarian
NCI-H23 lung = system: NCI-H23 lung
HT29 colon = system: HT29 colon
786-0 renal = system: 786-0 renal
SF-268 CNS = system: SF-268 CNS
HCT-116 colon = system: HCT-116 colon

## COc1cc(C(=O)c2c(-c3ccccc3)oc3c(OC)cccc23)cc(OC)c1O
SF-539 CNS
  GI50: 0.311 µM
  TGI: 2.64 µM
MCF7 breast
  GI50: 0.351 µM
  TGI: > 100 µM
U251 CNS
  GI50: 0.507 µM
  TGI: > 100 µM
SF-295 CNS
  GI50: 0.569 µM
  TGI: > 21.5 µM
HL-60(TB) leukemia
  GI50: 0.284 µM
  TGI: 1.02 µM
SR leukemia
  GI50: 0.339 µM
  TGI: 53 µM
K-562 leukemia
  GI50: 0.328 µM
  TGI: > 100 µM
SK-MEL-2 melanoma
  GI50: 2.28 µM
  TGI: > 100 µM
MDA-MB-231 breast
  GI50: 1.5 µM
  TGI: 16.1 µM
SW-620 colon
  GI50: 0.454 µM
  TGI: > 100 µM
HOP-92 NSCLC
  GI50: 0.276 µM
  TGI: 2.25 µM
BT-549 breast
  GI50: 1.19 µM
  TGI: 7.31 µM
CAKI-1 renal
  GI50: 0.404 µM
  TGI: 26.7 µM
NCI-H226 lung
  GI50: 3.1 µM
  TGI: > 100 µM
LOX IMVI melanoma
  GI50: 0.608 µM
  TGI: > 100 µM
EKVX NSCLC
  GI50: 0.876 µM
  TGI: > 100 µM
HCT-15 colon
  GI50: 0.455 µM
  TGI: > 100 µM
T-47D breast
  GI50: 1.2 µM
  TGI: > 100 µM
NCI/ADR-RES ovarian
  GI50: 0.454 µM
  TGI: > 100 µM
M14 melanoma
  GI50: 0.351 µM
  TGI: > 100 µM
PC-3 prostate
  GI50: 0.45 µM
  TGI: > 37.2 µM
A498 renal
  GI50: 0.378 µM
  TGI: 3.53 µM
NCI-H522 lung
  GI50: 0.269 µM
  TGI: 5.18 µM
OVCAR-8 ovarian
  GI50: 0.631 µM
  TGI: > 100 µM
NCI-H23 lung
  GI50: 0.864 µM
  TGI: > 100 µM
HT29 colon
  GI50: 3.15 µM
  TGI: > 33.7 µM
786-0 renal
  GI50: 0.63 µM
  TGI: 14.3 µM
SF-268 CNS
  GI50: 1.04 µM
  TGI: > 100 µM
HCT-116 colon
  GI50: 0.563 µM
